Results on 2 compounds are retold here after US20190315814A1, “LANTIBIOTIC VARIANTS AND USES THEREOF” (priority 2016, published 2019).

The structures appear in SMILES notation. ≈ marks a conversion by molar mass, not a printed value. Where two headings read alike, the source gives them in different places.

In test [1] the test system is VRE Enterococcus faecalis. The following applies: strain ATCC 51575; multi-site variants.
Test [2] has as its system Eggerthella lenta (ATCC 27337). Briefly: microbe, parasite or virus in culture. The note with it: ATCC27337, read-out: MIC E. lenta.
Test [3] has as its system VRE Enterococcus faecalis. As to the kind of experiment: organism not typed.
The subject of another test is VRE Enterococcus faecium. Briefly: organism not typed. The note with it: read-out: MIC VRE ATCC 700221, strain ATCC 700221.
The next test concerns Pseudomonas aerigunosa. As to the kind of experiment: MIC against Gram negative P. aeruginosa. The test is classed as cell-based, Pseudomonas aeruginosa. The method, then: A minimum inhibitory concentration (MIC) assessment against Pseudomonas aerigunosa (a Gram negative bacterium) was performed for single site variants in the broth dilution assay as described by the CLSI (CLSI document M07-A8). Samples and Ofloxacin control were dissolved and serially diluted in 100% DMSO and 4 μL was added per well to 96-well plate with 196 μL of Cation Adjusted Mueller Hinton II Broth seeded with P. aeruginosa. […] The assay plates were loosely wrapped in a plastic bag and incubated 20-24 hours at 36° C. (aerobic conditions) and then visually examined and scored positive (+) for inhibition of growth or turbidity or negative (−) for no effect upon growth or turbidity.

In the case of `CC(=O)NC[C@H]1CN(c2ccc(N3CCOCC3)c(F)c2)C(=O)O1` [Linezoid, Linezolid], the “MIC VRE ATCC 51575” value in test [1] is 2 µg/mL (≈ 5.93 µM). Moreover, the MIC in test [2] was found to be 1 µg/mL (≈ 2.96 µM); in test [3] (read-out: MIC VRE ATCC 51299), 2 µg/mL (≈ 5.93 µM); in test [3] (read-out: MIC VRE ATCC 51575), 2 µg/mL (≈ 5.93 µM); in test [3] (read-out: MIC VRE CCUG 47775) it was 2 µg/mL (≈ 5.93 µM); with VRE Enterococcus faecium (multi-site variants), 4 µg/mL (≈ 11.9 µM); in the test with VRE Enterococcus faecium (single site variants) it was 2 µg/mL (≈ 5.93 µM).
For the compound `CC1COc2c(N3CCN(C)CC3)c(F)cc3c(=O)c(C(=O)O)cn1c23` (centres unmarked) [Ofloxacin], the MIC in the test with Pseudomonas aerigunosa worked out at 1 µg/mL (≈ 2.77 µM).
